Experimental data: ChEMBL document CHEMBL1201862, “PubChem BioAssay data set” (2004)
Active and inactive are the calls of the source.

Columns and labels:
Format in all cases: functional
[1] = biological target: Peroxisome proliferator-activated receptor gamma (Homo sapiens, UniProt P37231); test: PPARg partial agonists, dose response, cell-based, luminescence, assay provider (AID 504447)
[2] = biological target: T1, G-protein coupled receptor 55 (Homo sapiens, UniProt Q9Y2T6); test: GPR55 antagonist potency of analogs, SAR follow-up, imaging, U2OS, beta-arrestin-GFP, LPI agonist, set 2 (AID 2820)
T1 sequence (Q9Y2T6 whole entry): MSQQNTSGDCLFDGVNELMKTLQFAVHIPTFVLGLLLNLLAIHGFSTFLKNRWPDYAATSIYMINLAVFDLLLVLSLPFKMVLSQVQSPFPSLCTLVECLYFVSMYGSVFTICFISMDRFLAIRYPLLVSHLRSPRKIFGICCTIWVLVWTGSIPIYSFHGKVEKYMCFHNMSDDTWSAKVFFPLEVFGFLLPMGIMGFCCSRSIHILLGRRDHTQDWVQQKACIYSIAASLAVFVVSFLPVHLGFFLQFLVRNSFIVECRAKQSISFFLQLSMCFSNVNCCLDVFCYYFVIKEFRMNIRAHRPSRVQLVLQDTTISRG

Cannabinoid receptor 1 [3] = biological target: T2, Cannabinoid receptor 1 (Homo sapiens, UniProt P21554); test: SAR analysis of antagonists of the Cannabinoid Receptor 1 using an Image-Based Assay - Set 2. [Related pubchem assays (depositor defined):AID2013, AID2026]
T2 sequence (P21554 whole entry): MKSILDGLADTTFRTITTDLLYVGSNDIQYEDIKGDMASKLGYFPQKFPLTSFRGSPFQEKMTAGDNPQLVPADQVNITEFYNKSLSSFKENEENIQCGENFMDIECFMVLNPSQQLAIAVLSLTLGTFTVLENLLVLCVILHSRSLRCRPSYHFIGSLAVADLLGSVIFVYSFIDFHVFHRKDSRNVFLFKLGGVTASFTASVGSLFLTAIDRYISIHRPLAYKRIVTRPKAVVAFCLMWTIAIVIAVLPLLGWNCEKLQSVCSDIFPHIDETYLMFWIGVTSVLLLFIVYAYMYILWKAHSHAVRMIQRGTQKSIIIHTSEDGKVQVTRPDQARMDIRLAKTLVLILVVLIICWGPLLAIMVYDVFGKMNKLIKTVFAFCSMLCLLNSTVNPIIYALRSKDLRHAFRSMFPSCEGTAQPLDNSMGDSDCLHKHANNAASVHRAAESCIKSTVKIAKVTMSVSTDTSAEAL

[4] = biological target: T3, G-protein coupled receptor 35 (Homo sapiens, UniProt Q9HC97); test: SAR analysis of Antagonists of the GPR35 Receptor using an Image-Based Assay - Set 3. [Related pubchem assays (depositor defined):AID2013, AID2026]
T3 sequence (Q9HC97 whole entry): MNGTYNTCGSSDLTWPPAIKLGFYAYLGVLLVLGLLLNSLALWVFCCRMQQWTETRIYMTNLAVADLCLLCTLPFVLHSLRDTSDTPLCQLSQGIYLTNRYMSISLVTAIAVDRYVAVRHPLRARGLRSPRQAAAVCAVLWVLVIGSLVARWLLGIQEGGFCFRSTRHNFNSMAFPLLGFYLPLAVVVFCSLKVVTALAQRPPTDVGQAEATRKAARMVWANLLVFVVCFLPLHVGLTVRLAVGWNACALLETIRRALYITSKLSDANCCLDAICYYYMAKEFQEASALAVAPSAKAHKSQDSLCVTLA

[5] = biological target: T4, Short transient receptor potential channel 4 (Mus musculus, UniProt Q9QUQ5); test: mouse TRPC4 channel inhibitors, dose response, cell-based, HEK293 TRPC4/mu-opioid, Fluo-4 calcium (AID 434942);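 further: potency of inhibitors blocking the TRPC4 calcium response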
T4 sequence (Q9QUQ5 whole entry): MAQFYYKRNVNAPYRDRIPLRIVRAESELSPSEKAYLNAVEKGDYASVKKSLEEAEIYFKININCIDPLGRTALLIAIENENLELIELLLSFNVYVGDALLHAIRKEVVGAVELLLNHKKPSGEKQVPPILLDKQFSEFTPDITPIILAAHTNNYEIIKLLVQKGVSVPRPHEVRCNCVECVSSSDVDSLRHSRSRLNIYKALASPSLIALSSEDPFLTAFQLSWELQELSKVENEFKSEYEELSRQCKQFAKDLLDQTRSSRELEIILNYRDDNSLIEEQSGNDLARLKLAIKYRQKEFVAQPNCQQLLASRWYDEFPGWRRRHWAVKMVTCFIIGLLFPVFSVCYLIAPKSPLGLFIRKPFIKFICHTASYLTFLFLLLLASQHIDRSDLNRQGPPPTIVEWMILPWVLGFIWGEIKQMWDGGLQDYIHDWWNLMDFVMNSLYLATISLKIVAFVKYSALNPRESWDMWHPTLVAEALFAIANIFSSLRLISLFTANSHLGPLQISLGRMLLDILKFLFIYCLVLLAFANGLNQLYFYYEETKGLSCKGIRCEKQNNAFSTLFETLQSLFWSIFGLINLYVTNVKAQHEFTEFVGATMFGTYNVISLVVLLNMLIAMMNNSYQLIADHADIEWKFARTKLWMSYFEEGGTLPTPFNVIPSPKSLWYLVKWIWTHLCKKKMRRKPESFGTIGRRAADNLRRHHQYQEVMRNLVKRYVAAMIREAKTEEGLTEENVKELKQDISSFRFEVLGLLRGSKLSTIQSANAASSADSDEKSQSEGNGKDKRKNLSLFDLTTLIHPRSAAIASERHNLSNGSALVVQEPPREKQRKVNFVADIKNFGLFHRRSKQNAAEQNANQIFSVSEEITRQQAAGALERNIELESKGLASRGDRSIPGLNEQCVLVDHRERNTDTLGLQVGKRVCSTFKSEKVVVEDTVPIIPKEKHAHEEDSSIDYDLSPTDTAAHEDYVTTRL

Cannabinoid receptor 2 [6] = biological target: T5, Cannabinoid receptor 2 (Homo sapiens, UniProt P34972); test: SAR analysis of antagonists of the Cannabinoid Receptor 2 using an Image-Based Assay. [Related pubchem assays (depositor defined):AID2013, AID2026]
T5 sequence (P34972 whole entry): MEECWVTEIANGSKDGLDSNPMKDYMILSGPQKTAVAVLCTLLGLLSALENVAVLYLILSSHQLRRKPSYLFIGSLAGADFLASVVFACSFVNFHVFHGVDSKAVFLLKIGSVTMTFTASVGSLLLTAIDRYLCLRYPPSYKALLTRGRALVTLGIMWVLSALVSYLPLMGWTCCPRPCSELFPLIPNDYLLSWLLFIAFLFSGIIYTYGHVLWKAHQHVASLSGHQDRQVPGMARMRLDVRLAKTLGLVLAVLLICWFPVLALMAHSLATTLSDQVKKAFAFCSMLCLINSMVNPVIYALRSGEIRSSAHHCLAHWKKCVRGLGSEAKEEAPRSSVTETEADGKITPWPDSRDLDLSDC

Cannabinoid receptor 2 [7] = biological target: T5, Cannabinoid receptor 2; test: SAR analysis of agonists of the Cannabinoid Receptor 2 using an Image-Based Assay. [Related pubchem assays (depositor defined):AID2013, AID2026]
[8] = biological target: T1, G-protein coupled receptor 55; test: GPR55 antagonists blocking LPI-driven arrestin recruitment, primary screen, imaging, U2OS, beta-arrestin-GFP, LPI agonist (AID 2013);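 further: antagonist potency measured as reduced agonist-driven arrestin aggregation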
Cannabinoid receptor 1 [9] = biological target: T2, Cannabinoid receptor 1; test: SAR analysis of agonists of the Cannabinoid Receptor 1 using an Image-Based Assay - Set 2. [Related pubchem assays (depositor defined):AID2013, AID2026]
[10] = biological target: T3, G-protein coupled receptor 35; test: SAR analysis of Agonists of the GPR35 Receptor using an Image-Based Assay - Set 2. [Related pubchem assays (depositor defined):AID2013, AID2026]
[11] = biological target: Sphingosine 1-phosphate receptor 4 (Homo sapiens, UniProt O95977); test: Late-stage fluorescence dose response cell-based assay to identify agonists of the Sphingosine 1-Phosphate Receptor 4 (S1P4): purchased compounds EC50. [Related pubchem assays (depositor defined):AID1509, AID1523, AID1563, AID1686, AID1701, AID1801]
Chain of Sphingosine 1-phosphate receptor 4 (O95977 whole entry): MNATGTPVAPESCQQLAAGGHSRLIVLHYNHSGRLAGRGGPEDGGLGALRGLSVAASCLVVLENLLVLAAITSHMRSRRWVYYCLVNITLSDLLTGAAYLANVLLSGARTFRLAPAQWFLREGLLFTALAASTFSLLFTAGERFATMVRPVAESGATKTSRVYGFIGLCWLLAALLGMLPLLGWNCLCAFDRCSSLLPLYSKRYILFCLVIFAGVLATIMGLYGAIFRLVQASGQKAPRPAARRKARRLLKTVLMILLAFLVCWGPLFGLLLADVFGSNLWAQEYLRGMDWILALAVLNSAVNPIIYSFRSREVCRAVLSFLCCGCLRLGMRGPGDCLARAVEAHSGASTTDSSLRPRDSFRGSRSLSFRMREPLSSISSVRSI

[12] = biological target: T3, G-protein coupled receptor 35; test: SAR analysis of Antagonists of the GPR35 Receptor using an Image-Based Assay - Set 6. [Related pubchem assays (depositor defined):AID2013, AID2026]
Cannabinoid receptor 1 [13] = biological target: T2, Cannabinoid receptor 1; test: SAR analysis of agonists of the Cannabinoid Receptor 1 using an Image-Based Assay - Set 4. [Related pubchem assays (depositor defined):AID2013, AID2026]
[14] = biological target: T3, G-protein coupled receptor 35; test: SAR analysis of Agonists of the GPR35 Receptor using an Image-Based Assay - Set 4. [Related pubchem assays (depositor defined):AID2013, AID2026]
[15] = biological target: T1, G-protein coupled receptor 55; test: SAR Analysis of Selective Antagonists of GPR55 using an Image-Based Assay - Set 4. [Related pubchem assays (depositor defined):AID2013, AID2026]
Cannabinoid receptor 1 [16] = biological target: T2, Cannabinoid receptor 1; test: SAR analysis of antagonists of the Cannabinoid Receptor 1 using an Image-Based Assay - Set 4. [Related pubchem assays (depositor defined):AID2013, AID2026]
Cannabinoid receptor 2 [17] = biological target: T5, Cannabinoid receptor 2; test: SAR analysis of antagonists of the Cannabinoid Receptor 2 using an Image-Based Assay - Set 3. [Related pubchem assays (depositor defined):AID2013, AID2026]
Cannabinoid receptor 2 [18] = biological target: T5, Cannabinoid receptor 2; test: SAR analysis of agonists of the Cannabinoid Receptor 2 using an Image-Based Assay - Set 3. [Related pubchem assays (depositor defined):AID2013, AID2026]

Chain of Peroxisome proliferator-activated receptor gamma (P37231 whole entry): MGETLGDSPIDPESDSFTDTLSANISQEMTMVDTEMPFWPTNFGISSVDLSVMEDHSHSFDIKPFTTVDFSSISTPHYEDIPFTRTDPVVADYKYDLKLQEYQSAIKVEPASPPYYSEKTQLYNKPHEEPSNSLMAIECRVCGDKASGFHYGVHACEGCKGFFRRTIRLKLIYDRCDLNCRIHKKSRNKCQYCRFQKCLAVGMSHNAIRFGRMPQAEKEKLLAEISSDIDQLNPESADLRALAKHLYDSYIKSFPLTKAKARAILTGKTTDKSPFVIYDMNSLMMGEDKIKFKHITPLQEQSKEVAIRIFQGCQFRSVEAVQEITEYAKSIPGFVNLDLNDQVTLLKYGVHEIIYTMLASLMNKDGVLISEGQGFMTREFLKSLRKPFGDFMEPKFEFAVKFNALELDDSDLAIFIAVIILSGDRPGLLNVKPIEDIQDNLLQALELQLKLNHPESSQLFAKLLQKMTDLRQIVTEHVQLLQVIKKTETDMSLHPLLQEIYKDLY

O=C(CSc1nc(=O)n(CCN2CCOCC2)c2c1CCCC2)Nc1cccc([N+](=O)[O-])c1
EC50 [1]: 631 nM (active)

Cc1[nH]nc(-c2ccc(O)cc2O)c1-c1ccc(Cl)cc1
IC50 [2]: 2.05 µM (active)
IC50 (Cannabinoid receptor 1 [3]): > 32 µM (inactive)
IC50 [4]: > 32 µM (inactive)
EC50 [5]: 5.31 µM (active)
IC50 (Cannabinoid receptor 2 [6]): > 32 µM (inactive)
EC50 (Cannabinoid receptor 2 [7]): > 32 µM (inactive)
IC50 [8]: 3.44 µM (active)
EC50 (Cannabinoid receptor 1 [9]): > 32 µM (inactive)
EC50 [10]: > 32 µM (inactive)

CC(=O)c1ccccc1NC(=O)C(C)OC(=O)c1c(C)nn(Cc2ccccc2)c1Cl (stereo not drawn)
EC50 [11]: > 50 µM (inactive)

O=C(Cc1ccccc1F)N1CCC(n2nc(-c3ccccc3)oc2=O)CC1
IC50 [12]: > 32 µM (inactive)
EC50 (Cannabinoid receptor 1 [13]): > 32 µM (inactive)
EC50 [14]: > 32 µM (inactive)
IC50 [15]: > 32 µM (inactive)
IC50 (Cannabinoid receptor 1 [16]): 17.9 µM (inactive)
IC50 (Cannabinoid receptor 2 [17]): > 32 µM (inactive)
EC50 (Cannabinoid receptor 2 [18]): > 32 µM (inactive)
